Patent US9090576B2, “2-substituted-p-quinone derivatives for treatment of oxidative stress diseases” (Edison Pharmaceuticals, Inc., priority 2008, dated 2015)

Tests used:
Assay type in all cases: cell-based
[1] = tested on: human dermal fibroblasts from Huntington's patients; experiment: Rescue of BSO-stressed fibroblasts from Huntington's patients (screen as Example A); conditions: Fibroblast, BSO-stressed Huntington's fibroblasts (GM 04281), less than about 150 nM, read-out: EC50, protection against Huntington's
In short: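 Coriell Huntington's line GM 04281 plated at 3,000 cells/well and attached overnight at 37 °C. Survival was read by Calcein AM (1.2 μM, 50-70 min, RT) fluorescence at 485/525 nm, giving EC50.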

[2] = tested on: human dermal fibroblasts from LHON patients; experiment: Rescue of BSO-stressed fibroblasts from LHON patients (screen as Example A); conditions: Fibroblast, BSO-stressed LHON fibroblasts (GM03858), less than about 150 nM, read-out: EC50, protection against LHON
In short: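 LHON patient fibroblasts (Coriell GM03858) at 3,000 cells/well were pre-treated overnight with compounds serially diluted from a 150 μM master solution. Surviving cells were stained with 1.2 μM Calcein AM for 50-70 min at RT and read by fluorescence (485/525 nm), giving EC50.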

[3] = tested on: human dermal fibroblasts from Parkinson's Disease patients; experiment: Rescue of BSO-stressed fibroblasts from Parkinson's Disease patients (screen as Example A); conditions: Fibroblast, BSO-stressed Parkinson's Disease fibroblasts (AG20439), less than about 150 nM, read-out: EC50, protection against PD
Experimental: (§1) A culture with FRDA fibroblasts was started from a 1 ml vial with approximately 500,000 cells stored in liquid nitrogen. Cells were propagated in 10 cm cell culture dishes by splitting every third day in a ratio of 1:3 until nine plates were available. Once confluent, fibroblasts were harvested. For 54 micro titer plates (96 well-MTP) a total of 14.3 million cells (passage eight) were re-suspended in 480 ml medium, corresponding to 100 μl medium with 3,000 cells/well. The remaining cells were distributed in 10 cm cell culture plates (500,000 cells/plate) for propagation. The plates were incubated overnight at 37° C. in an atmosphere with 95% humidity and 5% CO2 to allow attachment of the cells to the culture plate.
(§2) MTP medium (243 μl) was added to a well of the microtiter plate. The test compounds were unfrozen, and 7.5 μl of a 5 mM stock solution was dissolved in the well containing 243 μl medium, resulting in a 150 μM master solution. Serial dilutions from the master solution were made. The period between the single dilution steps was kept as short as possible (generally less than 1 second).
(§3) Plates were kept overnight in the cell culture incubator. The next day, 10 μl of a 10 mM BSO solution were added to the wells, resulting in a 1 mM final BSO concentration. Forty-eight hours later, three plates were examined under a phase-contrast microscope to verify that the cells in the 0% control (wells E1-H1) were clearly dead. The medium from all plates was discarded, and the remaining liquid was removed by gently tapping the plate inversed onto a paper towel.
(§4) 100 μl of PBS containing 1.2 μM Calcein AM were then added to each well. The plates were incubated for 50-70 minutes at room temperature. After that time the PBS was discarded, the plate gently tapped on a paper towel and fluorescence (excitation/emission wavelengths of 485 nm and 525 nm, respectively) was read on a Gemini fluorescence reader. Data was imported into Microsoft Excel (EXCEL is a registered trademark of Microsoft Corporation for a spreadsheet program) and used to calculate the EC50 concentration for each compound.
Compounds of the invention were screened as described in Example A, but substituting FRDA cells with Parkinson's Disease (PD) cells obtained from the Coriell Cell Repositories (Camden, N.J.; repository number AG20439). The compounds were tested for their ability to rescue human dermal fibroblasts from Parkinson's Disease patients from oxidative stress.

[4] = tested on: human dermal fibroblasts from CoQ10 deficient patients; experiment: Rescue of BSO-stressed fibroblasts from CoQ10 deficient patients (screen similar to Example A); conditions: Fibroblast, BSO-stressed fibroblasts from CoQ10 deficient patients harboring a CoQ2 mutation, less than about 150 nM, read-out: EC50, protection against CoQ10 deficiency
Experimental: as §1, §2, §3, §4
Compounds of the invention were tested using a screen similar to the one described in Example A, but substituting FRDA cells with cells obtained from CoQ10 deficient patients harboring a CoQ2 mutation. The compounds were tested for their ability to rescue human dermal fibroblasts from CoQ10 deficient patients from oxidative stress.

[5] = tested on: Human dermal fibroblasts from Friedreich's Ataxia patients; experiment: Rescue of BSO-stressed FRDA fibroblasts (Calcein AM viability); conditions: BSO-stressed FRDA fibroblasts (GM04078), less than about 150 nM, read-out: EC50, protection against FRDA
In short: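 Patient FRDA fibroblasts (GM04078) seeded at 3,000 cells/well, given serially diluted compound from a 150 μM master solution, then stressed next day with 1 mM BSO.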

Measured: EC50

CC1=C(C)C(=O)C(CCCC(=O)NCc2ccccc2)=C(C)C1=O [N-benzyl-4-(2,4,5-trimethyl-3,6-dioxocyclohexa-1,4-dienyl)butanamide]
not listed: [5]
< 0.15 µM: all other assays above

CC1=C(C)C(=O)C(CCCC(=O)Nc2ccccc2Cl)=C(C)C1=O [N-(2-chlorophenyl)-4-(2,4,5-trimethyl-3,6-dioxocyclohexa-1,4-dienyl)butanamide]
< 0.15 µM: all assays above

COc1ccccc1NC(=O)CCCC1=C(C)C(=O)C(C)=C(C)C1=O [N-(2-methoxyphenyl)-4-(2,4,5-trimethyl-3,6-dioxocyclohexa-1,4-dienyl)butanamide]
< 0.15 µM: all assays above

CC1=C(C)C(=O)C(CCCC(=O)N2CCc3ccccc3C2)=C(C)C1=O [2-(4-(3,4-dihydroisoquinolin-2(1H)-yl)-4-oxobutyl)-3,5,6-trimethylcyclohexa-2,5-diene-1,4-dione]
< 0.15 µM: all assays above

CC1=C(C)C(=O)C(CCCC(=O)NCc2ccccc2F)=C(C)C1=O [N-(2-fluorobenzyl)-4-(2,4,5-trimethyl-3,6-dioxocyclohexa-1,4-dienyl)butanamide]
< 0.15 µM: [1] | [3] | [4]

CC1=C(C)C(=O)C(CCCC(=O)NCc2ccc(F)cc2)=C(C)C1=O [N-(4-fluorobenzyl)-4-(2,4,5-trimethyl-3,6-dioxocyclohexa-1,4-dienyl)butanamide]
< 0.15 µM: all assays above

CC1=C(C)C(=O)C(CCCC(=O)Nc2ccccc2F)=C(C)C1=O [N-(2-fluorophenyl)-4-(2,4,5-trimethyl-3,6-dioxocyclohexa-1,4-dienyl)butanamide]
< 0.15 µM: all assays above

CC1=C(C)C(=O)C(CCCC(=O)NCCc2ccc(F)cc2)=C(C)C1=O [N-(4-fluorophenethyl)-4-(2,4,5-trimethyl-3,6-dioxocyclohexa-1,4-dienyl)butanamide]
< 0.15 µM: all assays above

CC1=C(C)C(=O)C(CCCC(=O)Nc2ccc(C#N)cc2)=C(C)C1=O [N-(4-cyanophenyl)-4-(2,4,5-trimethyl-3,6-dioxocyclohexa-1,4-dienyl)butanamide]
< 0.15 µM: all assays above

CC1=C(C)C(=O)C(CCCC(=O)N2CCc3ccccc32)=C(C)C1=O [2-(4-(indolin-1-yl)-4-oxobutyl)-3,5,6-trimethylcyclohexa-2,5-diene-1,4-dione]
< 0.15 µM: all assays above

CC1=C(C)C(=O)C(CCCC(=O)N(Cc2ccccc2)C(C)C)=C(C)C1=O [N-benzyl-N-isopropyl-4-(2,4,5-trimethyl-3,6-dioxocyclohexa-1,4-dienyl)butanamide]
< 0.15 µM: all assays above

CC1=C(C)C(=O)C(CCCC(=O)Nc2ccc(Cl)cc2N)=C(C)C1=O [N-(2-amino-4-chlorophenyl)-4-(2,4,5-trimethyl-3,6-dioxocyclohexa-1,4-dienyl)butanamide]
< 0.15 µM: all assays above

CC1=C(C)C(=O)C(CCCC(=O)Nc2ccc(C)cc2)=C(C)C1=O [N-p-tolyl-4-(2,4,5-trimethyl-3,6-dioxocyclohexa-1,4-dienyl)butanamide]
< 0.15 µM: all assays above

COc1cccc(NC(=O)CCCC2=C(C)C(=O)C(C)=C(C)C2=O)c1 [N-(3-methoxyphenyl)-4-(2,4,5-trimethyl-3,6-dioxocyclohexa-1,4-dienyl)butanamide]
< 0.15 µM: all assays above

CC1=C(C)C(=O)C(CCCC(=O)NCc2ccc(Cl)cc2)=C(C)C1=O [N-(4-chlorobenzyl)-4-(2,4,5-trimethyl-3,6-dioxocyclohexa-1,4-dienyl)butanamide]
< 0.15 µM: all assays above

CC1=C(C)C(=O)C(CCCC(=O)Nc2ccc(C(F)(F)F)cc2)=C(C)C1=O [N-(4-(trifluoromethyl)phenyl)-4-(2,4,5-trimethyl-3,6-dioxocyclohexa-1,4-dienyl)butanamide]
< 0.15 µM: all assays above

CC1=C(C)C(=O)C(CCCC(=O)NCc2cccc(Cl)c2)=C(C)C1=O [N-(3-chlorobenzyl)-4-(2,4,5-trimethyl-3,6-dioxocyclohexa-1,4-dienyl)butanamide]
not listed: [5]
< 0.15 µM: all other assays above

CC1=C(C)C(=O)C(CCCC(=O)NCCc2cccc(Cl)c2)=C(C)C1=O [N-(3-chlorophenethyl)-4-(2,4,5-trimethyl-3,6-dioxocyclohexa-1,4-dienyl)butanamide]
not listed: [5]
< 0.15 µM: all other assays above

CC1=C(C)C(=O)C(CCCC(=O)N2CCCc3ccccc32)=C(C)C1=O [2-(4-(3,4-dihydroquinolin-1 (2H)-yl)-4-oxobutyl)-3,5,6-trimethylcyclohexa-2,5-diene-1,4-dione]
not listed: [3]
< 0.15 µM: all other assays above

CC1=C(C)C(=O)C(CCCC(=O)Nc2cccc(C#N)c2)=C(C)C1=O [N-(3-cyanophenyl)-4-(2,4,5-trimethyl-3,6-dioxocyclohexa-1,4-dienyl)butanamide]
not listed: [3]
< 0.15 µM: all other assays above

CC1=C(C)C(=O)C(CCCC(=O)NCC2(O)CC2)=C(C)C1=O [N-((1-hydroxycyclopropyl)methyl)-4-(2,4,5-trimethyl-3,6-dioxocyclohexa-1,4-dienyl)butanamide]
not listed: [3]
< 0.15 µM: all other assays above

CC1=C(C)C(=O)C(CCCC(=O)NCc2cccc(F)c2)=C(C)C1=O [N-(3-fluorobenzyl)-4-(2,4,5-trimethyl-3,6-dioxocyclohexa-1,4-dienyl)butanamide]
< 0.15 µM: [1] | [3] | [4]

CC1=C(C)C(=O)C(CCNC(=O)NCc2ccc(C(F)(F)F)cc2)=C(C)C1=O [1-(4-(trifluoromethyl)benzyl)-3-(2-(2,4,5-trimethyl-3,6-dioxocyclohexa-1,4-dienyl)ethyl)urea]
not listed: [3]
< 0.15 µM: all other assays above
